How the values were obtained:
[1] = tested on: Renca cells (renal cell carcinoma); assay: Effect of isomers on in vivo tumour growth in mice challenged with Renca cells (Example 7); parameters: species or system Balb/c mice; details: 260 ng/mouse i.p. days 6, 7, 14
Description: This assay was made in order to check the effect of each stereoisomer on in vivo tumour growth in mice challenged with Renca cells. Their effect was compared with placebo. The stereoisomers assayed were:
Renca is a renal cell carcinoma originated in Balb/c mouse strain, and therefore syngeneic in mice with Balb/c genetic background [Melder R J et al., Cancer Immunol. Immunother., 2005, 54:535-547; Felluga B et al., 1969, J. Natl. Cancer Inst. 43:319-333]. Renca is considered a moderate immunogenic tumour and used as suitable model for testing immunointervention approaches [Salup R R, et al., 1992, The Journal of Urology, 147:1120-1123].
(§1) Renca cells (CLS, Eppelheim, Germany) were maintained in vitro by serial passages every 3-4 days. Cultures were performed with RPMI medium medium (RPMI, 10% foetal calf serum, 2 mM L-glutamine, non essential amino acids, 1 mM sodium pyruvate, 20 mM HEPES, 80 μg/mL gentamycin; all of them were purchased from Sigma, St. Louis, Mo., USA) by seeding 5×10^6 cells onto 75 cm^2 culture flasks. Tumour cells collected from 48 hour cultures upon trypsinization (Sigma, St. Louis, Mo., USA) were used as source of Renca cells for the studies described below.
Each isomer was tested at the dose levels of 260 ng administered on days 6, 7 and 14 after tumour inoculation.
The treatments were given by intraperitoneal route (i.p.). The volume inoculated was 0.2 mL/animal. This route was chosen because it is the one described in the original method [Pérez S, et al., 2003, Clinical Cancer Research. 9:5776-5785].
Tumours were established by subcutaneous inoculation in the right hind flank. Mice (Balb/c) were inoculated with 0.2 mL containing 10^5 viable Renca cells. The day of subcutaneous inoculation will be considered Day 0 of the test.
(§2) Mice were observed daily and the tumour size recorded twice a week. This was carried out by measuring two perpendicular diameters (L/W) with a calliper. These measures were used to obtain both tumour surface and volume: Tumour surface=L×W(mm^2) Tumour volume=L×W^2×½(mm^3)
(§3) Results were expressed as single values and/or as the mean±SD or median from each experimental group.
(§4) A case-control study was performed with treated and control mice in order to determine whether differences between isomers and administration of placebo were present. […] The U-test of Mann Withney was chosen for being one of the better known non-parametrical tests, anyway, results for this test are equivalent both to those of Wilcoxon's sum of ranges and Kruskal-Wallis two-groups test.
Due to the high dispersion of data, outlayers (animals beyond percentile 25 or above percentile 75 for tumour surface at day 25) were excluded of the study.

[2] = tested on: Ehrlich tumour cells (murine mammary adenocarcinoma); assay: Effect of isomers and BLAS on in vivo tumour growth, Ehrlich tumours (Example 9); parameters: species or system Balb/c mice; details: for Tumour surface, overall values (Mean) / Tumour surface, overall values (Median) / Tumour volume, overall values (Mean) / Tumour volume, overall values (Median): 260 ng/mouse i.p. days 6, 7 and 14
Description: This assay was made in order to compare the effect of each stereoisomer on in vivo tumour growth in mice with the effect of the mixture of all of them challenged with Ehlrich tumours. The same products, equipment, reagents, doses, vehicle and route of administration as in example 8 were used.
Mice were inoculated with Ehrlich tumour cells. It was described as a murine mammary adenocarcinoma. Ehrlich tumour is a murine mammary carcinoma originally raised in an outbred mouse, and therefore it belongs to the so-called non-specific tumours (Subiza J L, Viñuela J E, Rodriguez R, Gil J, Figueredo M A, de la Concha. E G. Development of splenic natural suppressor (NS) cells in Ehrlich tumor bearing mice. Int J Cancer, 44:307 315; 1989). It may grow across histocompatibility barriers and therefore is not mouse strain specific (Carry P J, Prescott D M, Ogilvie G K. Resistance to Ehrlich ascites tumor in a strain of dystrophic mice. Cancer Res., 39:2139-2140; 1979).
as §1, with “Ehrlich” for “Renca”, “cells” for “cells (CLS, Eppelheim, Germany)”, “aminoacids,” for “amino acids,”, “cultures” for “cultures upon trypsinization (Sigma, St. Louis, Mo., USA)”, “of” for “of Renca”
Tumours were established by subcutaneous inoculation in the right hind flank. Mice (Balb/c) were inoculated with 0.2 mL containing 2×10^5 viable Ehrlich cells. The day of subcutaneous inoculation will be considered Day 0 of the test.
as §2, §3
as §4, with “BLAS or each diferent stereoisomer” for “isomers”

[3] = day 11 after tumour inoculation
[4] = day 13 after tumour inoculation
[5] = day 16 after tumour inoculation
[6] = day 20 after tumour inoculation
[7] = day 23 after tumour inoculation
[8] = day 29 after tumour inoculation
[9] = day 31 after tumour inoculation
[10] = day 35 after tumour inoculation
[11] = day 38 after tumour inoculation

## Br.N[C@@]1(C[n+]2ccccc2)C[C@H](C(=O)O)NC1=O.[Br-] (single isomer, unassigned; isomer 2) [isomer 2, 3R,5R-1-(3-Amino-5-carboxy-2-oxopyrrolidin-3-ylmethyl)pyridinium bromide hidrobromide]
[1]; day 0 after tumour inoculation
  Tumour surface, overall values (Mean): 0 mm^2
  Tumour surface, overall values (Median): 0 mm^2
  Tumour volume, overall values (Mean): 0 mm^3
  Tumour volume, overall values (Median): 0 mm^3
[1]; [3]
  Tumour surface, overall values (Median): 0 mm^2
  Tumour volume, overall values (Median): 0 mm^3
[1]; day 14 after tumour inoculation
  Tumour surface, overall values (Median): 9 mm^2
[2]; 260 ng i.p. days 6, 7 and 14
  Inhibition of the in vivo growth of Ehrlich tumour cells, in words: inhibit the in vivo growth
[2]; day 0 after tumour inoculation
  Tumour surface, overall values (Mean): 0 mm^2
  Tumour surface, overall values (Median): 0 mm^2
  Tumour volume, overall values (Mean): 0 mm^3
  Tumour volume, overall values (Median): 0 mm^3
[2]; day 8 after tumour inoculation
  Tumour surface, overall values (Mean): 6.69 mm^2
  Tumour surface, overall values (Median): 4 mm^2
  Tumour volume, overall values (Mean): 10.97 mm^3
  Tumour volume, overall values (Median): 4 mm^3
[2]; [4]
  Tumour surface, overall values (Mean): 14.81 mm^2
  Tumour surface, overall values (Median): 16 mm^2
  Tumour volume, overall values (Mean): 32.16 mm^3
  Tumour volume, overall values (Median): 32 mm^3
[2]; [5]
  Tumour surface, overall values (Mean): 20.37 mm^2
  Tumour surface, overall values (Median): 20 mm^2
  Tumour volume, overall values (Mean): 51.87 mm^3
  Tumour volume, overall values (Median): 40 mm^3
[2]; [6]
  Tumour surface, overall values (Mean): 28.37 mm^2
  Tumour surface, overall values (Median): 27.5 mm^2
  Tumour volume, overall values (Mean): 81.81 mm^3
  Tumour volume, overall values (Median): 68.75 mm^3
[2]; [7]
  Tumour surface, overall values (Mean): 35.75 mm^2
  Tumour surface, overall values (Median): 33 mm^2
  Tumour volume, overall values (Mean): 113.75 mm^3
  Tumour volume, overall values (Median): 91.5 mm^3
[2]; [8]
  Tumour surface, overall values (Mean): 46.12 mm^2
  Tumour volume, overall values (Mean): 167 mm^3
[2]; [9]
  Tumour surface, overall values (Mean): 50.06 mm^2
  Tumour surface, overall values (Median): 45 mm^2
  Tumour volume, overall values (Mean): 191.91 mm^3
  Tumour volume, overall values (Median): 135 mm^3
[2]; [10]
  Tumour surface, overall values (Mean): 60.25 mm^2
  Tumour surface, overall values (Median): 51 mm^2
  Tumour volume, overall values (Mean): 258.06 mm^3
  Tumour volume, overall values (Median): 153 mm^3
[2]; [11]
  Tumour surface, overall values (Mean): 75.37 mm^2
  Tumour surface, overall values (Median): 71 mm^2
  Tumour volume, overall values (Mean): 372.5 mm^3
  Tumour volume, overall values (Median): 266.5 mm^3
[2]; either in surface or volume, all days scored after the day 13th
  Differences in Ehrlich tumour growth rate vs. placebo, statistical significance p (Mann-Whitney U test): < 0.05
